Columns and labels:
Assay type in all cases: biochemical
PI3Ka = PI3Ka (Homo sapiens (Human), UniProt P42336); assay: Z'-LYTE / Adapta kinase assay, PI3Ka; conditions: read-out: PI3Ka % Inh. @ 100 nM
Source text: (§1) The Z′-LYTE® biochemical assay employs a fluorescence-based, coupled-enzyme format and is based on the differential sensitivity of phosphorylated and non-phosphorylated peptides to proteolytic cleavage (FIG. 6). The peptide substrate is labeled with two fluorophores one at each end—that make up a FRET pair. In the primary reaction, the kinase transfers the gamma-phosphate of ATP to a single tyrosine, serine or threonine residue in a synthetic FRET-peptide. In the secondary reaction, a site-specific protease recognizes and cleaves non-phosphorylated FRET-peptides. Phosphorylation of FRET-peptides suppresses cleavage by the Development Reagent. Cleavage disrupts FRET between the donor (i.e., coumarin) and acceptor (i.e., fluorescein) fluorophores on the FRET-peptide, whereas uncleaved, phosphorylated FRET-peptides maintain FRET. A ratiometric method, which calculates the ratio (the Emission Ratio) of donor emission to acceptor emission after excitation of the donor fluorophore at 400 nm, is used to quantitate reaction progress.
(§2) A significant benefit of this ratiometric method for quantitating reaction progress is the elimination of well-to-well variations in FRET-peptide concentration and signal intensities. As a result, the assay yields very high Z′-factor values (>0.7) at a low percent phosphorylation.
(§3) Both cleaved and uncleaved FRET-peptides contribute to the fluorescence signals and therefore to the Emission Ratio. The extent of phosphorylation of the FRET-peptide can be calculated from the Emission Ratio.
(§4) Enzyme: The ADAPTA universal kinase assay is a homogenous, fluorescent based immunoassay for the detection of ADP. In contrast to ATP depletion assays, the ADAPTA assay is extremely sensitive to ADP formation such that a majority of the signal change occurs in the first 10-20% conversion of ATP to ADP. This makes the ADAPTA universal kinase assay ideally suited for use with low activity kinases.
(§5) The principle of the ADAPTA universal kinase assay is outlined below. The assay itself can be divided into two phases: a kinase reaction phase, and an ADP detection phase. In the kinase reaction phase, all components required for the kinase reaction are added to the well, and the reaction is allowed to incubate for 60 minutes.
(§6) Z′-LYTE® Assay Conditions:
(§7) Test Compounds: The Test Compounds are screened in 1% DMSO (final) in the well. For 10 point titrations, 3-fold serial dilutions are conducted from the starting concentration.
(§8) Peptide/Kinase Mixtures: All Peptide/Kinase Mixtures are diluted to a 2× working concentration in the appropriate Kinase Buffer.
(§9) ATP Solution: All ATP Solutions are diluted to a 4× working concentration in Kinase Buffer (50 mM HEPES pH 7.5, 0.01% BRIJ-35, 10 mM MgCl2, 1 mM EGTA). ATP Km apparent is previously determined using a Z′-LYTE® assay.
(§10) Development Reagent Solution: The Development Reagent is diluted in Development Buffer. […]
(§11) 2.5 μL—4× Test Compound or 100 nL 100× plus 2.4 μL kinase buffer. 2. 5 μL—2× Peptide/Kinase Mixture. 3. 2.5 μL—4× ATP Solution. 4. 30-second plate shake. 5. 60-minute Kinase Reaction incubation at room temperature. 6. 5 μL—Development Reagent Solution. 7. 30-second plate shake. 8. 60-minute Development Reaction incubation at room temperature. 9.

DNA-PK = DNA-PK (Homo sapiens (Human), UniProt P78527); assay: Z'-LYTE / Adapta kinase assay, DNA-PK; conditions: read-out: DNA-PK % Inh. @ 100 nM
Source text: as §1, §2, §3, §4, §5, §6, §7, §8, §9, §10, §11

EGFR = EGFR (Homo sapiens (Human), UniProt P00533); assay: Z'-LYTE / Adapta kinase assay, EGFR; conditions: read-out: EGFR % Inh. @ 100 nM
Chain of EGFR (P00533 25-1210): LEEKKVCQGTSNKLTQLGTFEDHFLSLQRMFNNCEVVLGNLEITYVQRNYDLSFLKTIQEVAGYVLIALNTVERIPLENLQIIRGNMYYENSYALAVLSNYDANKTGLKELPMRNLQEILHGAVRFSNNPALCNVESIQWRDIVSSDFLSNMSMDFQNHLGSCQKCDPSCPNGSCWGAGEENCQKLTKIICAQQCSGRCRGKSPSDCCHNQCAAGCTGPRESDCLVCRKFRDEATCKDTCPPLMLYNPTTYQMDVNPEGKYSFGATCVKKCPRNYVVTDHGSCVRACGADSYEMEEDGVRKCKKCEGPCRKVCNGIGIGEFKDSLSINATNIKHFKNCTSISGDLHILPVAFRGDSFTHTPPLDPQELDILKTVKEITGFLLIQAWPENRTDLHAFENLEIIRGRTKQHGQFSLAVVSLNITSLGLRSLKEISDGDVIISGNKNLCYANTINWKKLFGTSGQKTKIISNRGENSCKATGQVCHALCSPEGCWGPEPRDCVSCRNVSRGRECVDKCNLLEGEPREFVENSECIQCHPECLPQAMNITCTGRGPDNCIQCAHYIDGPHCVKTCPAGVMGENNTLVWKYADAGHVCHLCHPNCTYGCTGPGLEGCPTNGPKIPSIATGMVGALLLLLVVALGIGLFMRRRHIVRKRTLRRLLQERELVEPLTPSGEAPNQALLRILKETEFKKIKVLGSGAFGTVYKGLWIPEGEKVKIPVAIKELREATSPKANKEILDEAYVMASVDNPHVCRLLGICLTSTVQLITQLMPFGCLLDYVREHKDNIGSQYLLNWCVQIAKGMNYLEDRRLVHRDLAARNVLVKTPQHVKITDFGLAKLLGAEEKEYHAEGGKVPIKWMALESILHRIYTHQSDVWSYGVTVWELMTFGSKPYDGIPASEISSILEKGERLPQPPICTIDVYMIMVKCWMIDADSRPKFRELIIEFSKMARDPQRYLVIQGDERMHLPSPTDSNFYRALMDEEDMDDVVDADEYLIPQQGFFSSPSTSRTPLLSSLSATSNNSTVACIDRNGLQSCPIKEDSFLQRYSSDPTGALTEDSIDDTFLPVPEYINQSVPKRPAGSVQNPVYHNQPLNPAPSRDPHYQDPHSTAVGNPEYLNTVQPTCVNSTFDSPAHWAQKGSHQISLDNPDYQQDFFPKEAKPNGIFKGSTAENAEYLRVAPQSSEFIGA
Source text: as §1, §2, §3, §4, §5, §6, §7, §8, §9, §10, §11

Chain of PI3Ka (P42336 whole entry): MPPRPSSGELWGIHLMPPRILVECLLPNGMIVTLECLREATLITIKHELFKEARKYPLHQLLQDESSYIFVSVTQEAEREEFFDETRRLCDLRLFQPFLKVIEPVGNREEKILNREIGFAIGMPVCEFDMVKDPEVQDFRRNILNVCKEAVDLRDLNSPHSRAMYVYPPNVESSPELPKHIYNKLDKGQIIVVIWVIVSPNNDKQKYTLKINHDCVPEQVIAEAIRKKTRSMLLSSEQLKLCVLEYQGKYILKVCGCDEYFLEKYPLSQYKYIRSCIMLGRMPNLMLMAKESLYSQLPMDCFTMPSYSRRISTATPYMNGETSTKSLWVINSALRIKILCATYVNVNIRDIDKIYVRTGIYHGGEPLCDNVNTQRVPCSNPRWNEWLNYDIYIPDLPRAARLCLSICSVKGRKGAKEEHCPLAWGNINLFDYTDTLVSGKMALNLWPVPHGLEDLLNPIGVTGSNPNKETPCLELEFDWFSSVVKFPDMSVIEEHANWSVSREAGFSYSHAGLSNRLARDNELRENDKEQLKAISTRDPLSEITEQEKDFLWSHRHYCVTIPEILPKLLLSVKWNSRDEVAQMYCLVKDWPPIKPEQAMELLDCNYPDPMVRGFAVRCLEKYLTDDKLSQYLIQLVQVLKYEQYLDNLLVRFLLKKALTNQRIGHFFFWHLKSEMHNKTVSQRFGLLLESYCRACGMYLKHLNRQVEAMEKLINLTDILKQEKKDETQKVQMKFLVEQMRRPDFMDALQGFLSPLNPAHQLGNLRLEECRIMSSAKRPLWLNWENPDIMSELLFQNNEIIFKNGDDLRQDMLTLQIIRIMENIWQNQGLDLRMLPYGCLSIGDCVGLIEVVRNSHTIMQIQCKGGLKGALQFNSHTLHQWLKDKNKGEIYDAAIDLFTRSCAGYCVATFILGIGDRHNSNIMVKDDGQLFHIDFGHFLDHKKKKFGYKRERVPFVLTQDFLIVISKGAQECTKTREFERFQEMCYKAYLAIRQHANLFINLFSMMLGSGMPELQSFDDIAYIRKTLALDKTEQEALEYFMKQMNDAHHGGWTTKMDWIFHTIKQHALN
Chain of PI3Ka (P27986 whole entry partner): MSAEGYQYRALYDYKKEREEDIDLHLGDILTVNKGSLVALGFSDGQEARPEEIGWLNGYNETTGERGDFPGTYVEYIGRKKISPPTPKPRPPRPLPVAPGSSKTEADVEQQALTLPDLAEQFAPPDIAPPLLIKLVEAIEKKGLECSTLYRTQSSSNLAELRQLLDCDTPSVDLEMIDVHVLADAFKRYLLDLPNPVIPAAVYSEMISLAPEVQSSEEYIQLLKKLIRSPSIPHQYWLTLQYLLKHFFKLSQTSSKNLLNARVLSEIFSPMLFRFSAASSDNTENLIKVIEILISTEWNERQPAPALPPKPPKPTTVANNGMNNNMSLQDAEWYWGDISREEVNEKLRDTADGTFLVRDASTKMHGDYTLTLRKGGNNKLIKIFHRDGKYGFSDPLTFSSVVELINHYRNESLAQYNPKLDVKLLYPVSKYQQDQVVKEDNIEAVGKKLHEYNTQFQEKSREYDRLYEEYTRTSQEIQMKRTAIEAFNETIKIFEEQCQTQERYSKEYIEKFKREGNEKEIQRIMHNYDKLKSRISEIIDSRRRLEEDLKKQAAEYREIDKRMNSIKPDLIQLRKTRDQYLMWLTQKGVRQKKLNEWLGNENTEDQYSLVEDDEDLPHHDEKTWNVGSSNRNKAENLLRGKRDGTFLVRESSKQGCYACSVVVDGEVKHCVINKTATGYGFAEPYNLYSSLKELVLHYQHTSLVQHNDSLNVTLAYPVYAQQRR

| inhibition at 0.1 µM (PI3Ka) [%] | inhibition at 0.1 µM (DNA-PK) [%] | inhibition at 0.1 µM (EGFR) [%] | Compound |
| --- | --- | --- | --- |
| < 10 | < 10 | 10 to 80 | CC(Nc1c(C#N)cnc2ccc(-c3cc(F)c(O)c(F)c3)cc12)c1ccccc1 (stereo not drawn) [Compound 130, 6-(3,5-difluoro-4-hydroxy-phenyl)-4-(1-phenylethylamino) quinoline-3-carbonitrile] |
| < 10 | < 10 | > 90 | C[C@@H](Nc1ncnc2ccc(-c3ccc4c(c3)C(=O)OC4)cc12)c1ccccc1 [Compound 136, 6-[4-[[(1R)-1-phenylethyl]amino]quinazolin-6-yl]-3H-isobenzofuran-1-one] |
| 10 to 80 | 10 to 80 | 80 to 90 | COc1cc(-c2ccc3ncc(C#N)c(NC(C)c4ccccc4)c3c2)cnc1OC (stereo not drawn) [Compound 68, 6-(5,6-dimethoxy-3-pyridyl)-4-(1-phenylethylamino)quinoline-3-carbonitrile] |
| 10 to 80 | < 10 | 10 to 80 | CC(Nc1c(C#N)cnc2ccc(-c3cnc4cnn(C)c4c3)cc12)c1ccccc1 (stereo not drawn) [Compound 73, 6-(1-methylpyrazolo [4,3-b]pyridin-6-yl)-4-(1-phenylethylamino) quinoline-3-carbonitrile] |
| 10 to 80 | 10 to 80 | 10 to 80 | Cc1nc2cc(-c3ccc4ncc(C#N)c(NC(C)c5ccccc5)c4c3)cnc2[nH]1 (stereo not drawn) [Compound 56, 6-(2-methyl-3H-imidazo[4,5-b]pyridin-6-yl)-4-(1-phenylethylamino) quinoline-3-carbonitrile] |
| < 10 | < 10 | 80 to 90 | CC(Nc1c(C#N)cnc2ccc(-c3cccc(-c4nnc[nH]4)c3)cc12)c1ccccc1 (stereo not drawn) [Compound 128, 4-(1-phenylethylamino)-6-[3-(4H-1,2,4-triazol-3-yl)phenyl]quinoline-3-carbonitrile] |
| < 10 | 10 to 80 | > 90 | CC(Nc1c(C#N)cnc2ccc(-c3n[nH]c4cnccc34)cc12)c1ccccc1 (stereo not drawn) [Compound 125, 4-(1-phenylethylamino)-6-(1H-pyrazolo [3,4-c]pyridin-3-yl)quinoline-3-carbonitrile] |
| < 10 | 10 to 80 | 80 to 90 | CC(Nc1c(C#N)cnc2ccc(-c3cncc(O)c3)cc12)c1ccccc1 (stereo not drawn) [Compound 61, 6-(5-hydroxy-3-pyridyl)-4-(1-phenylethylamino) quinoline-3-carbonitrile] |
| < 10 | 10 to 80 | > 90 | C[C@@H](Nc1ncnc2ccc(-c3cncc(-c4nnc[nH]4)c3)cc12)c1ccccc1 [Compound 138, (R)-6-(5-(4H-1,2,4-triazol-3-yl)pyridin-3-yl)-N-(1-phenylethyl)quinazolin-4-amine] |
| < 10 | < 10 | > 90 | C[C@@H](Nc1ncnc2ccc(-c3cncc(C(=O)N(C)O)c3)cc12)c1ccccc1 [Compound 134, (R)-N-hydroxy-N-methyl-5-(4-((1-phenylethyl)amino)quinazolin-6-yl)nicotinamide] |
| 10 to 80 | 10 to 80 | 80 to 90 | CC(Nc1ncnc2ccc(-c3cnc4[nH]ncc4c3)cc12)c1ccccc1 (stereo not drawn) [Compound 8, N-(1-phenylethyl)-6-(1H-pyrazolo[3,4-b]pyridin-5-yl)quinazolin-4-amine] |
| < 10 | 10 to 80 | 10 to 80 | CC(Nc1c(C#N)cnc2ccc(-c3cnc(N)c(C(F)(F)F)c3)cc12)c1ccccc1 (stereo not drawn) [Compound 62, 6-(6-amino-5-(trifluoromethyl)pyridin-3-yl)-4-((1-phenylethyl)amino)quinoline-3-carbonitrile] |
